Assay results as given in US20250099420A1, “SMALL MOLECULE MODULATORS OF GPR139 COMPLEX” (University of Florida Research Foundation, Incorporated, priority 2022, published 2025).
Read-outs that look alike come from different tables or passages of the source.

Experiments:
parental HEK cells = experiment: HEK parental Agonist Counterscreen Assay (non-transfected cells); type: cell-based; settings: for Averaged Max % Response (±St. Dev.): activity relative to known control
Source text: The high control for the agonist counterscreen was Forskolin not acetylcholine.

GPR139 = biological target: T1, GPR139 (Homo sapiens, UniProt Q6DWJ6); experiment: GPR139 Agonist titration / agonist counterscreen assay (calcium detection, HEK-GPR139 cells); type: cell-based; parameters: expressed in transfected cells; host or cells: HEK Aequorin cells, Maxcyte transient transfection; settings: GPR139 Agonist Activity; for Averaged Max % Response (±St. Dev.): activity relative to known control; for EC50: read-out: EC50
T1 sequence (Q6DWJ6 1-353): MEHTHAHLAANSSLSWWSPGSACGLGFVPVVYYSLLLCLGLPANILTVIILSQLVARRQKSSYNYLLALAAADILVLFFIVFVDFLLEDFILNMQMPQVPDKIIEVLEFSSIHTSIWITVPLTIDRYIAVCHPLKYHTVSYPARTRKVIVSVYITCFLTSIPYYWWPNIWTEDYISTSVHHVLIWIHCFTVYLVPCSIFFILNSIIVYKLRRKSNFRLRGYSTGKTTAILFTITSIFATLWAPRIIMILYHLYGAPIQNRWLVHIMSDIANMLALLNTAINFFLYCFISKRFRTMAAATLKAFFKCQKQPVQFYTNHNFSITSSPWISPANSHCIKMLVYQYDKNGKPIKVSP
Description: GPR activity was assessed using a calcium detection assay. […] Negative control samples were treated with DMSO. […] Intracellular calcium was measured using Calcium 5.

[1] = Homo sapiens, HEK293, HEK Agonist Activity, parental non-transfected HEK cells
[2] = values printed in E-notation without unit
[3] = HEK Agonist Activity, parental non-transfected HEK cells
[4] = Homo sapiens, HEK293, HEK Agonist Activity section of Table 4 (parental HEK counterscreen)
[5] = HEK Agonist Activity section of Table 4 (parental HEK counterscreen)

SMILES | Lipophilic Efficiency (logD) (parental HEK cells; HEK Agonist Activity) | Lipophilic Efficiency (logP) (parental HEK cells; HEK Agonist Activity) | Averaged Max % Response (±St. Dev.) (GPR139) [%] | Lipophilic Efficiency (logD) (GPR139; based on logD) | Lipophilic Efficiency (logP) (GPR139; based on logP) | Hill Slope (GPR139; fitted dose-response curve) | Efficiency Ligand (GPR139; ligand efficiency) | EC50 (GPR139; [2]) [nM] | Lipophilic Efficiency (logD) (parental HEK cells; HEK Agonist Activity section) | Lipophilic Efficiency (logP) (parental HEK cells; HEK Agonist Activity section) | Efficiency Ligand (GPR139) | Hill Slope (GPR139) | Lipophilic Efficiency (logD) (GPR139) | Lipophilic Efficiency (logP) (GPR139) | EC50 (GPR139; HEK-GPR139 cells) [nM] | Averaged Max % Response (±St. Dev.) (parental HEK cells; HEK Agonist Activity) [%] | EC50 (parental HEK cells; [1]) [nM] | Averaged Max % Response (±St. Dev.) (parental HEK cells; HEK Agonist Activity section) [%] | EC50 (parental HEK cells; [4]) [nM] | also measured
O=C(COc1ccccc1F)NNC(=O)CSc1ccc2ccccc2c1 [SR-01000068761] | 1.82 | 1.81 | 123.40 ± 6.48 | 5.00 | 4.99 | 0.55 | 0.42 | 9.7 |  |  |  |  |  |  |  | 4.98 ± 10.48 | > 14700 |  |  | 
C=C(CCc1cccc(CC)c1)C(C)C1CCC(Cc2ccccc2C)C1=C (stereo not shown) [SR-01000095280] | 2.38 | 2.38 | 122.65 ± 11.25 | 6.68 | 6.68 |  | 0.41 |  |  |  |  |  |  |  |  | 25.01 ± 8.12 | > 14100 |  |  | 
COc1ccccc1NC(=O)NNC(=O)CSc1cc(C)c(Br)cc1C [SR-01000061624] | 0.94 | 0.93 | 120.81 ± 8.57 | 4.01 | 4.00 | 1.00 | 0.43 | 12 |  |  |  |  |  |  |  | 13.43 ± 5.07 | > 14100 |  |  | 
CCCCNC(=O)NNC(=O)CSc1cc(C)c(Br)cc1C [SR-01000061818] | 1.46 | 1.46 | 110.53 ± 3.36 | 4.41 | 4.41 | 0.71 | 0.50 | 16.3 |  |  |  |  |  |  |  | 3.00 ± 9.38 |  |  |  | EC50 (parental HEK cells; [3]): > 14500 nM
O=C(CC(c1ccccc1)c1ccccc1)Oc1coc(CSc2ncccn2)cc1=O [SR-01000020502] | 0.13 | 0.13 | 91.42 ± 14.52 | 2.69 | 2.69 | 1.13 | 0.32 | 38.7 |  |  |  |  |  |  |  | 4.84 ± 4.90 |  |  |  | EC50 (parental HEK cells; [3]): > 13900 nM
O=C(CCS(=O)(=O)c1cccc2nonc12)NCCc1ccc(Cl)cc1 [SR-01000119565] |  |  | 68.12 ± 14.87 |  |  |  |  |  | 2.79 | 2.79 | 0.30 | 1.07 | 3.46 | 3.46 | 3000 |  |  | 5.54 ± 5.16 |  | EC50 (parental HEK cells; [5]): > 14100 nM
O=C(CCCOc1ccc(Cl)cc1Cl)NNC(=O)Cc1ccc2c(c1)OCCO2 [SR-01000065653] |  |  | 89.15 ± 7.00 | 4.06 | 4.05 | 1.10 | 0.34 | 94.4 | 1.88 | 1.87 |  |  |  |  |  |  |  | −8.07 ± 6.14 |  | EC50 (parental HEK cells; [5]): > 14100 nM
N#Cc1ccc(OC(=O)COc2cccc3ccccc23)cc1 [SR-01000005203] |  |  | 77.18 ± 14.00 |  |  |  |  |  | 0.91 | 0.91 | 0.38 | 1.01 | 2.24 | 2.24 | 651 |  |  | 16.23 ± 3.90 | > 13900 | 

More lines, main results first:

Lipophilic Efficiency (logD) (parental HEK cells; HEK Agonist Activity) | Lipophilic Efficiency (logP) (parental HEK cells; HEK Agonist Activity) | Averaged Max % Response (±St. Dev.) (GPR139) [%] | Lipophilic Efficiency (logD) (GPR139; based on logD) | Lipophilic Efficiency (logP) (GPR139; based on logP) | Hill Slope (GPR139; fitted dose-response curve) | Efficiency Ligand (GPR139; ligand efficiency) | EC50 (GPR139; [2]) [nM] | Lipophilic Efficiency (logD) (parental HEK cells; HEK Agonist Activity section) | Lipophilic Efficiency (logP) (parental HEK cells; HEK Agonist Activity section) | Efficiency Ligand (GPR139) | Hill Slope (GPR139) | Lipophilic Efficiency (logD) (GPR139) | Lipophilic Efficiency (logP) (GPR139) | EC50 (GPR139; HEK-GPR139 cells) [nM] | SMILES | Averaged Max % Response (±St. Dev.) (parental HEK cells; HEK Agonist Activity) [%] | EC50 (parental HEK cells; [1]) [nM] | Averaged Max % Response (±St. Dev.) (parental HEK cells; HEK Agonist Activity section) [%] | EC50 (parental HEK cells; [4]) [nM] | also measured
 |  | 106.36 ± 3.74 | 3.70 | 3.70 | 0.50 | 0.36 |  | 1.68 | 1.68 |  |  |  |  |  | COc1ccc(CCCC(=O)c2cccc(-c3ccc(OC)cc3)c2)cc1 [SR-01000655128] |  |  | 0.74 ± 3.27 | > 14100 | 
 |  | 95.01 ± 4.20 |  |  |  |  |  | 4.36 | 4.19 | 0.30 | 0.62 | 5.90 | 5.73 | 406 | CN(CCC(=O)NCC1Cc2cccc(-c3ccccn3)c2O1)C1CCS(=O)(=O)C1 (stereo not shown) [SR-01000193031] |  |  | 25.60 ± 3.67 | > 14100 | 
0.63 | 0.63 | 95.66 ± 12.25 | 3.21 | 3.21 | 0.45 | 0.43 | 37.1 |  |  |  |  |  |  |  | Cc1cccc(NC(=O)NCCc2ccc3c(c2)CCCN3C)c1 [SR-01000923247] | 20.62 ± 4.90 | > 14100 |  |  | 
 |  | 75.38 ± 12.05 |  |  |  |  |  | 3.01 | 3.01 | 0.30 | 0.69 | 4.01 | 4.01 | 1400 | COC(=O)C(CCSC)NC(=O)C1CC(Cc2ccc3c(c2)OCO3)=NO1 (stereo not shown) [SR-01000193756] |  |  | −12.55 ± 2.76 |  | EC50 (parental HEK cells; [5]): > 14100 nM
1.52 | 1.48 | 126.50 ± 10.38 | 4.97 | 4.94 | 0.32 | 0.47 | 4.9 |  |  |  |  |  |  |  | COc1cccc(C(=O)NNC(=O)C(C)Oc2ccc(Cl)cc2Cl)c1 (stereo not shown) [SR-01000356497] | 2.54 ± 3.30 | > 14100 |  |  | 
1.19 | 1.19 | 101.90 ± 10.65 | 3.89 | 3.89 | 0.63 | 0.38 | 28.1 |  |  |  |  |  |  |  | CCOc1nn(CC)cc1-c1nnc(SCc2ccc(C(=O)OC)cc2)n1C [SR-01000919746] | −13.54 ± 17.63 | > 14100 |  |  | 
 |  | 97.49 ± 3.70 | 4.59 | 4.53 | 0.88 | 0.42 | 143 | 2.60 | 2.54 |  |  |  |  |  | CC(Oc1ccc(Cl)cc1Cl)C(=O)NNC(=O)c1ccncc1 (stereo not shown) [SR-01000319951] |  |  | 7.14 ± 13.31 | > 14100 | 
 |  | 83.76 ± 7.63 |  |  |  |  |  | 2.90 | 1.91 | 0.32 | 0.44 | 4.08 | 3.09 | 931 | O=C(Cn1ccc2ccccc21)NC1CCN(Cc2ccccc2)CC1 [SR-01000925700] |  |  | 10.33 ± 2.07 | > 14100 | 
 |  | 78.44 ± 11.98 |  |  |  |  |  | 1.72 | 1.72 | 0.31 | 0.56 | 2.47 | 2.47 | 2500 | Cc1ccc2c(c1)-c1c(cnn1CC(=O)Nc1ccc(F)cc1)CO2 [SR-01000136273] |  |  | −14.31 ± 5.07 |  | EC50 (parental HEK cells; [5]): > 14100 nM
 |  | 99.15 ± 6.04 | 4.29 | 4.29 | 0.44 | 0.32 | 196 | 2.44 | 2.44 |  |  |  |  |  | Cc1nc(CNC(=O)CCC2(Cc3cccc4ccccc34)CCC(=O)N2)cs1 (stereo not shown) [SR-01000187393] |  |  | 6.35 ± 6.79 | > 14100 | 
 |  | 104.57 ± 1.81 | 5.91 | 2.52 | 0.80 | 0.44 | 254 | 4.05 | 0.66 |  |  |  |  |  | O=C(O)c1ccccc1C(=O)c1cccc2ccccc12 [SR-01000391835] |  |  | 10.10 ± 5.45 | > 18300 | 
